Measured values: ChEMBL document CHEMBL1201862, “PubChem BioAssay data set” (2004)
Active and inactive are the calls of the source. For most assays here, no stated cut-off is given here; in the data, actives have a measured EC50 and inactives only a lower limit.

Assays:
[1] = Luminescence Cell-Based Dose Retest to Confirm Inhibitors of Cancer Stem Cells. [Related pubchem assays (depositor defined):AID2717, AID2721]; format: functional; settings: Homo sapiens
[2] = target: T1, Heat shock factor protein 1 (Mus musculus, UniProt P38532); assay: enhancement of HSF1-driven luciferase signal – cell-based, NIH3T3, luminescence, dose retest, confirmation (AID 435004); format: functional;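 further: stress induced by proteasome inhibitor MG132 added 30 min after compound; luciferase reporter driven by HSF1 response element in NIH3T3 cells; actives raise luminescence as potentiators of the MG132 stress response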
T1 sequence (P38532 whole entry): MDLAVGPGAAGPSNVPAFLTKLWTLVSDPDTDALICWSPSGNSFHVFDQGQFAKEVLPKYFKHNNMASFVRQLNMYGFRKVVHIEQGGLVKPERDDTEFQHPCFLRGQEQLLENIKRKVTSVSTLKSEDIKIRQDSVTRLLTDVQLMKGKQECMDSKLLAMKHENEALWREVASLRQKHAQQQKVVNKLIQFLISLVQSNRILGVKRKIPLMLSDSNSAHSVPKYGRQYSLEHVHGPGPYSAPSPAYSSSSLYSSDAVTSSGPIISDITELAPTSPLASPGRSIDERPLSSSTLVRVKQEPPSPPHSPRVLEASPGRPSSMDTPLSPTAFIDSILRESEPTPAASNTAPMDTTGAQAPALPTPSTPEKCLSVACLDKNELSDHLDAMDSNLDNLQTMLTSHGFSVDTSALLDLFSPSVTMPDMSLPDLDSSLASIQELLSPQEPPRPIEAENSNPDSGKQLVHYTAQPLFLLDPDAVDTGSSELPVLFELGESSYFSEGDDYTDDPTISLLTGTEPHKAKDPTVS

[3] = Luminescence Cell-Based Dose Confirmation HTS to Identify Activators of 5'UTR Stem-Loop Driven Alpha-Synuclein mRNA Translation in H4 Neuroglioblastoma Cells. [Related pubchem assays: 1829 (Project Summary), 1814 (Primary HTS)]; format: functional
[4] = Luminescence Cell-Based Dose Response HTS to Identify Activators of Luciferase Translation or Activity in H4 […] Cells. [Related pubchem assays: 1829 (Project Summary), 1814 (Primary HTS)]; format: functional
[5] = tested on: H4; assay: Luminescence Cell-Based Dose Response HTS to Identify Activators of 5'UTR Stem-Loop Driven Prion Protein mRNA Translation in H4 Neuroglioblastoma Cells. [Related pubchem assays: 1829 (Project Summary), 1814 (Primary HTS)]; format: functional; settings: Homo sapiens
[6] = NIH3T3 cell viability loss – ATP luminescence, mouse fibroblasts, counter-screen, dose response (AID 2010); format: functional, cell-based;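 further: cells exposed to compound for about 90 hours before reading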
[7] = Trypanosoma cruzi growth suppression in host cells – NIH3T3 host cells, beta-gal luminescence, confirmation (AID 2044); format: functional, cell-based;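 further: intracellular parasites grown in NIH/3T3 mouse fibroblasts as host cells; luminescent beta-galactosidase reporter signal from transgenic T. cruzi replicating inside host cells; inhibitors lower the luminescence signal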
[8] = tested on: INS1; assay: INS-1E survival protection against cytokine death – cell-based, luminescence, retest, dose response (AID 449756); format: functional; settings: Rattus norvegicus;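 further: cell death triggered by IL-1 beta plus TNF-alpha plus IFN-gamma mixture; protective hits raise ATP signal compared with cytokine alone wells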
[9] = target: T2, Corticotropin-releasing factor receptor 2/Corticotropin-releasing factor-binding protein (Homo sapiens, UniProt P24387+Q13324); assay: activators of CRF receptor 2 with binding protein – uHTS hits, confirmation (AID 602473); format: functional; settings: read-out: EC50_Mean
T2 sequence (Q13324 whole entry): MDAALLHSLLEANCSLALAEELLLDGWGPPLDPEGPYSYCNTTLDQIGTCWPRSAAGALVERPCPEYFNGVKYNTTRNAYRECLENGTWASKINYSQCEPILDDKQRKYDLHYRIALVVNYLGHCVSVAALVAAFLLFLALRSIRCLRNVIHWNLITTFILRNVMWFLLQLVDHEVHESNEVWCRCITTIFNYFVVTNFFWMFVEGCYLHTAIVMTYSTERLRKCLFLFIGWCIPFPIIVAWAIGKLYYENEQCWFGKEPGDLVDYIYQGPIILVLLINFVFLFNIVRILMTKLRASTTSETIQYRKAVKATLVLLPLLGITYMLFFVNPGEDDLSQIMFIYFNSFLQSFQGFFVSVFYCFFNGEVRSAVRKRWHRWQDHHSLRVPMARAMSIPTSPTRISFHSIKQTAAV
T2 sequence (P24387 whole entry): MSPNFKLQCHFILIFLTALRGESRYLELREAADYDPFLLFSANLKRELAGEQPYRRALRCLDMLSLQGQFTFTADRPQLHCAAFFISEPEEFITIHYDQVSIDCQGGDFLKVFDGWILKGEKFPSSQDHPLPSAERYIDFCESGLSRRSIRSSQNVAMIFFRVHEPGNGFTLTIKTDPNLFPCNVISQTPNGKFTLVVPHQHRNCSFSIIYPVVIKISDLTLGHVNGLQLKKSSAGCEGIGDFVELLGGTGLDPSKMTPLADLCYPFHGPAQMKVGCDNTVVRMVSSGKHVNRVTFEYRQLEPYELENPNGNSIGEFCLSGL

SMILES	EC50 [3]	EC50 [4]	EC50 [5]	further results
O=C(Nc1cccc(Cl)c1)Nc1sccc1-c1nc2ccccc2s1				AC50 [1]: 39 µM (active)
CCc1cccc(NS(=O)(=O)c2ccc3c(c2)NC(=O)C(C)S3)c1 (centres undefined)				EC50 [2]: > 260 µM (inactive)
Cc1nnc2n1N=CC=C(c1ccccc1)S2	0.547 µM (active)	7.89 µM (active)	> 120 µM (not active)	
CCOC(=O)c1cnc(-n2nc(C)cc2C)nc1Nc1ccc(N(C)C)cc1				EC50 [6]: > 30 µM (not active); EC50 [7]: 1.12 µM (active); AC50 [8]: 4.04 µM (active)
CC(C)(C)NC(=O)C(c1ccncc1)N(C(=O)Cn1nnc(-c2cccs2)n1)C1CCCCC1 (centres undefined)				EC50 [2]: > 260 µM (inactive)
Oc1c2cnnc-2nc(SCc2ccccc2F)n1-c1ccc(Br)cc1				AC50 [1]: 3.3 µM (active)
CC(C)C[C@H]1CN=C(Nc2ccccc2)N1CCc1ccc(F)cc1				AC50 [8]: 64.4 µM (active)
N#Cc1c(-c2ccccc2)cc(-c2ccccc2)nc1SCC(=O)NCC(=O)O				EC50 [9]: 12.2 µM (active)
Cc1ccc(CNc2c(C=O)c(O)nc3ccccc23)cc1				EC50 [2]: > 260 µM (inactive)
C/C(=C\C(=O)Nc1cscc1C)C(=O)O				EC50 [2]: > 260 µM (inactive)
Cc1cccc(OCCOC(=O)c2c(-c3ccccc3)noc2C)c1	> 120 µM (not active)	62 µM (active)	> 120 µM (not active)	
Cc1cc(C)c2c3c(sc2n1)C1(CCSCC1)C(C#N)=C(N)O3	20.3 µM (active)	14.5 µM (inconclusive)	14.7 µM (active)	EC50 [6]: > 30 µM (not active); EC50 [7]: 0.118 µM (active)
Cc1c(OCC(=O)NCCCn2ccnc2)ccc2c3c(c(=O)oc12)CCCC3				EC50 [2]: > 260 µM (inactive)
c1ccc(-c2sc3ccccc3c2-c2ccc(OCCN3CCOCC3)cc2)cc1				AC50 [1]: 2.28 µM (active)
CN(/N=C/c1cc(Cl)cc(Cl)c1O)C(=S)NC(C)(C)C				AC50 [1]: 2.5 µM (active)
COC(=O)c1ccc(COc2ccccc2/C=N/NS(=O)(=O)c2ccc(C)cc2)cc1	> 120 µM (not active)	> 120 µM (not active)	> 120 µM (not active)	
O=C1NC2(CCCCC2)C(=O)N1/N=C/c1ccccc1Br	> 120 µM (not active)	24.6 µM (active)	16.1 µM (active)	
CCN1/C(=N/c2ccc(Cl)cc2)SC/C1=C\C(=O)OC	17.1 µM (active)	26.6 µM (active)	23.7 µM (active)	
